Test results from patent publication EP1656183B1, “TREATMENT OF MALE SEXUAL DYSFUNCTION” (Pfizer Limited, priority 2003, dated 2005).
Read-outs that look alike come from different tables or passages of the source.

Legend:
human V1A receptor = biological target: T1, human V1A receptor (Homo sapiens, UniProt P37288); assay: Ligand binding assay, [3H]-AVP binding to CHO-hV1A membranes
T1 construct: expressed in transfected cells; host or cells: CHO (CHO-hV1A cell line provided by Marc Thibonnier, Case Western Reserve University)
T1 sequence (P37288 whole entry): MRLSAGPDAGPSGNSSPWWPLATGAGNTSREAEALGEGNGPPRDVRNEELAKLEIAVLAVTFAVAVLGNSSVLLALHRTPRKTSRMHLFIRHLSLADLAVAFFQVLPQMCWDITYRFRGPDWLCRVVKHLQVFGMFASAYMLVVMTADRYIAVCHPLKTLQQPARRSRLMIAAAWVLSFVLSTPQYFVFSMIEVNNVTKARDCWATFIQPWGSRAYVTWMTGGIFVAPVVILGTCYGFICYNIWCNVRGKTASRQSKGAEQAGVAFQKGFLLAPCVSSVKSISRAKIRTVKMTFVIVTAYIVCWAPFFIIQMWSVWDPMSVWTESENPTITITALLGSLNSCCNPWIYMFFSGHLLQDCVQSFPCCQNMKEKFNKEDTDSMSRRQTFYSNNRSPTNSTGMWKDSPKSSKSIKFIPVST
Method: Receptor binding assays were performed on cellular membranes prepared from CHO cells stably expressing the human V1A receptor, (CHO-hV1A). […] CHO-hV1A cells were routinely maintained at 37°C In humidified atmosphere with 5% CO2 in DMEM/Hams F12 nutrient mix supplemented with 10 % fetal bovine serum, 2 mM L-glutamine, 15 mM HEPES and 400 µg/ml G418. For bulk production of cell pellets, adherent CHO-hV1A cells were grown to confluency of 90-100% in 850 cm^2 roller bottles containing a medium of DMEM/Hams F12 Nutrient Mix supplemented with 10 % fetal bovine serum, 2 mM L-glutamine and 15 mM HEPES. Confluent CHO-hV1A cells were washed with phosphate-buffered saline (PBS), harvested into ice cold PBS and centrifuged at 1,000 rpm. Cell pellets were stored at -80°C until use. Cell pellets were thawed on ice and homogenised in membrane preparation buffer consisting of 50 mM Tris-HCI, pH 7.4, 5 mM MgCl2 and supplemented with a protease inhibitor cocktail, (Roche). The cell homogenate was centrifuged at 1000 rpm, 10 min, 4°C and the supernatant was removed and stored on ice. The remaining pellet was homogenised and centrifuged as before. The supernatants were pooled and centrifuged at 25,000 x g for 30 min at 4°C. The pellet was resuspended in freezing buffer consisting of 50 mM Tris-HCI, pH 7.4, 5 mM MgCl2 and 20 % glycerol and stored in small aliquots at -80°C until use. Protein concentration was determined using Bradford reagent and BSA as a standard.
Protein linearity followed by saturation binding studies were performed on each new batch of membrane. A membrane concentration was chosen that gave specific binding on the linear portion of the curve. […]
Compounds were tested for their effects on [^3H]-AVP binding to CHO-hV1A membranes, (^3H-AVP; specific activity 65.5 Ci/mmol; NEN Life Sciences). […] The plates were sealed and counted on a TopCount Microplate Scintillation Counter (Packard Instruments). Non-specific binding (NSB) was determined using 1 µM unlabelled d(CH2)5Tyr(Me)AVP ([β-mercapto-β,β-cyclopentamethylene-propionyl,0-Me-Tyr^2,Arg^8]-vasopressin) (βMCPVP), (Sigma). The radioligand binding data was analysed using a four parameter logistic equation with the min forced to 0%. […] Specific binding was calculated by subtracting the mean NSB cpm from the mean Total cpm. For test compounds the amount of ligand bound to the receptor was expressed as % bound = (sample cpm - mean NSB cpm)/specific binding cpm x100. […] The Inhibitory dissociation constant (Ki) was calculated using the Cheng-Prusoff equation: Ki=IC50/(1+[L]/Kd) where [L] is the concentration of ligand present in the well and Kd is the dissociation constant of the radioligand obtained from Scatchard plot analysis.

[1] = Plasma concentration in the copulatory behaviour study; assay type: in vivo; settings: 0.05mgkg^-1 sc, rats
conscious rats = assay: Copulatory behaviour in conscious rats (ejaculatory latency); assay type: in vivo; settings: 0.05mgkg^-1 sc
Method: For all the sexual behavour tests, the male rats were placed in an observation arena (50-60 cm diameter), starting 5 hours into the dark cycle and observed under red ilumination. Three to four minutes after placing the male in the arena, a receptive female (ovariectomised, oestradiol benzoate / progesterone injection 48 hour before behavioural study) was Introduced into the arena and the following parameters noted: • i) ejaculatory latency (EJL; time taken from addition of receptive female into the arena to ejaculation); • ii) copulatory efficiency (CE; ejaculatory latency/ the number of intromissions to ejaculation, i.e. the number of seconds between intromissions); • iii) intromission frequency (IF; the number of intromissions to ejaculation); • iv) mount frequency (MF; the number of mounts to ejaculation); • v) post ejaculatory interval (PEI; the time taken from ejaculation to the commencement of copulatory behaviour).
Rodent copulatory behaviour is characterised by a series of mounts, with and without vaginal insertion (50-80% of mounts result in intromission [vaginal penetration]) and ejaculation occurs after 6 to 12 intromissions. Each intromission lasts a matter of seconds - it is not possible to quantify intromission length i.e. intravaginal latency. The effect of L-371257 was assessed on a number of copulatory parameters (see above). […]

human Oxytocin receptor = biological target: T2, human Oxytocin receptor (Homo sapiens, UniProt P30559); assay: Oxytocin receptor binding assay (125I-OVT, SPA)
T2 construct: expressed in transfected cells; host or cells: CHO
T2 sequence (P30559 1-389): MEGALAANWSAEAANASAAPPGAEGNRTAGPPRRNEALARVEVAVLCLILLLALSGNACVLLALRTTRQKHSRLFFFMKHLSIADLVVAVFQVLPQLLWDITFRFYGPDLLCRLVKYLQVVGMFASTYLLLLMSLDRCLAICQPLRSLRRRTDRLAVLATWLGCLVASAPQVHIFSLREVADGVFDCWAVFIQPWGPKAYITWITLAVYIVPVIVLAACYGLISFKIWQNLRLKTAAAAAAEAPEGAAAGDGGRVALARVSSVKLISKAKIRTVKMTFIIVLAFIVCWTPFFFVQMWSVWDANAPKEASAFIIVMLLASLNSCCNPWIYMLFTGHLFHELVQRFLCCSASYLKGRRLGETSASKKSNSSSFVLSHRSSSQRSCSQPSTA
Method: As an example for a selectivity assay, an oxytocin receptor binding assay is described below.
CHO-cells engineered to express the human Oxytocin receptor are maintained, and membrane preparations from such cells are prepared according to standard techniques (see e.g. Example 2). They are diluted to 1 mg/ml protein concentration in assay buffer (50 mM Tris-HCl, pH7.8; 10 mM Mg Cl2; 0.25% BSA). SPA beads are resuspended at 50 mg/ml in assay buffer. From these concentrations, beads are pre-coupled with membranes by incubating 30 µg of protein per mg of bead on a top-to-tail shaker for 2 hours at 4 °C. The bead/membranes are then centrifuged at 2000 rpm for 10 mins and the pellet is resuspended at 3 mg/ml.
All manipulations of the ^125I-OVT (NEN, NEX254) are carried out using tips that have been silanised using SigmaCote. All bottles and tubes are also silanised. […] A 5 µl sample is then counted in duplicate using liquid scintillation counting (protocol 61 on Wallac Counter) and the concentration of the ligand is calculated. […] Using the measured concentration, the ^125I-OVT is diluted to 0.3 nM in assay buffer.
20 µl of the bead/membrane preparation is added to the prepared Optiplates using the Multi-drop, after the desired dilutions of test compounds are added to the wells. […] Following a 4 hour incubation at room temperature, the plates are counted using the TopCount NXT for 30s/well.

anaesthetised rats = assay: p-chloroamphetamine (PCA)-induced ejaculation and penile erection in anaesthetised rats; assay type: in vivo, Male Sprague Dawley rats; settings: for delay of p-chloroamphetamine (PCA)-induced ejaculation: vasopressin selective doses, plasma concentration of 9-31 nM; for Penile Cups / Penile Flares: % of PCA-induced erections
Method: In order to study penile erection and ejaculation the method used was based on the methodology taught in Yonezawa et al (2000) Life Sciences 67, 3031-3039. For ease of reference, this methodology is described below:
Male Sprague Dawley rats, weighing 350-450 g, are used. Prior to the experiments the animals are housed in groups (2 rats per cage) under controlled 12 h light-dark cycle (lights on at 07:00), constant temperature (23±1°C) and humidity (55±5%). They have free access to standard food pellets and water.
Rats are anesthestised with sodium pentobarbitone (50mg/kg, i.p.) and are placed in the supine position. The penis is extruded from its sheath and gently held by a wooden applicator positioned at the base of the penis. The test compounds are administered by intravenous infusion and p-chloroamphetamine (PCA) (5-10mg/kg) is administered i.p. immediately before the sheath retraction and the penile responses, including penile erection, redding and expansion of the penile body, glans erection, engorgement and slight flaring of the glans and cup, glans erection with Intense flaring of the glans, are recorded. Latencies from PCA administration to the initial penile response and ejaculation is also measured In seconds. […]

[2] = plasma conc 30.9nM, listed as compound 1

SMILES	selective towards oxytocin receptors as compared with vasopressin V1a receptors (human V1A receptor; as printed: OT vs V1a)	Ki (human V1A receptor; read-out: vasopressin V1a receptors (V1a; Ki V1a)) [nM]	Plasma conc [1]	other effects on copulatory behaviour (conscious rats)	Increased ejaculatory latency (conscious rats; P<0.05 versus vehicle) [%]	Ki (human Oxytocin receptor; read-out: oxytocin receptors (OT)) [nM]	Ki (human V1A receptor) [nM]	selective towards vasopressin V1a receptors as compared with oxytocin receptors (human V1A receptor)	time taken for the rats to achieve erection (anaesthetised rats; anaesthetised rats, PCA-induced)	Ejaculation was delayed (anaesthetised rats; anaesthetised rats, free plasma concentrations 30.9nM, near maximal effect) [%]	delay of p-chloroamphetamine (PCA)-induced ejaculation (anaesthetised rats; anaesthetised rats)	delay of p-chloroamphetamine (PCA)-induced ejaculation (anaesthetised rats; anaesthetised rats, listed as compound 1)	ejaculation and penile erection (anaesthetised rats; at both plasma conc 11.4nM and 30.9nM)	Penile Cups (anaesthetised rats; plasma conc 11.4nM) [%]	Penile Flares (anaesthetised rats; plasma conc 11.4nM) [%]	Penile Cups (anaesthetised rats; plasma conc 30.9nM) [%]	Penile Flares (anaesthetised rats; plasma conc 30.9nM) [%]	Penile Cups (anaesthetised rats; [2]) [%]	Penile Flares (anaesthetised rats; [2]) [%]	Ki (human Oxytocin receptor; read-out: oxytocin receptors (OT; Ki OT)) [nM]
COc1cc(OC2CCN(C(C)=O)CC2)ccc1C(=O)N1CCC(N2C(=O)OCc3ccccc32)CC1 [Compound L-371257, reference compound]	more than 5 fold	3.7	L-371257 0.05mgkg^-1 sc Plasma conc ∼ 30nM	no other significant effects	67	19	–	–	–	–	–	–	–	–	–	–	–	–	–	–
COC1CCN(Cc2nnc(C3CCN(c4ccccn4)CC3)n2Cc2ccccc2)CC1 [Compound 1, 4-[4-Benzyl-5-(4-methoxy-piperldin-1-ylmethyl)-4H-[1,2,4]triazol-3-yl]-3,4,5,6-tetrahydro-2H-[1,2']bipyridinyl]	–	–	–	–	–	–	50	more than 60 fold	not significantly affected	100	delays ejaculation	significantly delayed	* At both of these concentrations Compound 1 delayed ejaculation without affecting penile erection.	31.6	81.5	57.0	83.6	57	84	3000
